How the values were obtained:
dopamine receptors = settings: background description; cited from earlier work
HSF1 regulated genes = assay: Example 1 in vivo pharmacodynamic study via subcutaneous dosing: expression of genes upregulated by HSF1 activation; design: species or system mouse
Protocol: (§1) Wildtype mice (3 per group) were dosed subcutaneously at 0, 0.5, 1.5, 5 and 10 mg/kg (6aS)-6-methyl-5,6,6a,7-tetrahydro-4H-dibenzo[de,g]quinoline-10,11-diol hydrochloride for 7 days once daily. One animal in the 10 mg/kg dosing group was actually dosed 15 mg/kg on Day 1. To prepare the dosing solutions, (6aS)-6-methyl-5,6,6a,7-tetrahydro-4H-dibenzo[de,g]quinoline-10,11-diol was pre-weighed into bijous and stored in foil.

TDP-43^Q331K mouse model [1] = assay: Example 4 electrophysiology: repetitive stimulation; assay type: in vivo; settings: TDP-43^Q331K mice
Protocol: (§2) Following genotyping, transgenic females were block randomized into three different dosing groups: vehicle once daily, 2.5 mg/kg (6aS)-6-methyl-5,6,6a,7-tetrahydro-4H-dibenzo[de,g]quinoline-10,11-diol twice daily and 5 mg/kg (6aS)-6-methyl-5,6,6a,7-tetrahydro-4H-dibenzo[de,g]quinoline-10,11-diol once daily. The doses were selected based on results of previous internal studies. Animals were weighed daily before dosing and dosed subcutaneously at 10 ml/kg with a solution of 0.5 mg/ml (6aS)-6-methyl-5,6,6a,7-tetrahydro-4H-dibenzo[de,g]quinoline-10,11-diol for the 5 mg/kg dose and 0.25 mg/ml for the 2.5 mg/kg dose. Where animals were dosed twice a day, the doses were at least 6 hours apart and the dosing solution was freshly made for the second dose of the day.
(§3) The study was designed with two main cohorts of mice. One cohort was dosed from 25 days of age until 6 months of age and mice had behavioral testing throughout the study and consisted of 14 mice per group. The other satellite cohort was dosed from 25 days of age until 3 months of age, with no behavioral testing and consisted of 6 mice per group for target engagement and histological assessment. Behavioral tests that were carried out during the experiment were: accelerated rotarod test, gait analysis, and electrophysiology.
(§4) Electrophysiological assessment of compound action muscle potential (CMAP) and repetitive stimulation was carried out at 6 weeks, 3 months and 6 months of age.
Mice were anesthetized using gaseous isoflurane and then maintained under gaseous anesthesia using a nose cone for the duration of the experiment. Body temperature was maintained with a heat pad. The fur from the lower left limb was removed using an electric razor followed by hair removal cream in order to allow skin contact of the ring electrodes. Ring electrodes were covered in electrical paste and were placed around the ankle and thigh area of the shaved limb. […]
Repetitive stimulation was carried out after the CMAP was calculated. […]

NRF2 = assay: Example 1 in vivo pharmacodynamic study via subcutaneous dosing: expression of genes upregulated by NRF2 activation; design: species or system mouse; settings: wildtype mice
Protocol: as §1

TDP-43^Q331K mouse model [2] = assay: Example 4 electrophysiology: compound muscle action potential (CMAP); assay type: in vivo; settings: TDP-43^Q331K mice
Protocol: as §2, §3, §4
Mice were anesthetized using gaseous isoflurane and then maintained under gaseous anesthesia using a nose cone for the duration of the experiment. Body temperature was maintained with a heat pad. The fur from the lower left limb was removed using an electric razor followed by hair removal cream in order to allow skin contact of the ring electrodes. Ring electrodes were covered in electrical paste and were placed around the ankle and thigh area of the shaved limb. The rings were tightened so that there were no air gaps between the skin and electrodes but not so tight that blood flow was altered. A grounding electrode was placed into the base of the tail and stimulating electrodes were placed higher on the leg as near as possible to the sciatic nerve.
CMAPs were acquired by pulsing an electrical wave of […] duration to the sciatic notch. The position of the electrodes was tested prior to the final pulse in order to make sure they were placed correctly by visualizing the outcome of the pulse. The stimulation current was then increased until no further increase in CMAP was seen.

[3] = wildtype mice, 1.5 mg/kg s.c. once daily 7 days, 24 hours post final dose, compared to Actb
[4] = wildtype mice, 5 mg/kg s.c. once daily 7 days, 24 hours post final dose, compared to Gapdh
[5] = wildtype mice, 10 mg/kg s.c. once daily 7 days, 6 hours post final dose, compared to Actb
[6] = wildtype mice, 10 mg/kg s.c. once daily 7 days, 6 hours post final dose, compared to Gapdh
[7] = 5 mg/kg s.c. once daily 7 days, 24 hours post final dose, compared to Gapdh
[8] = 10 mg/kg s.c. once daily 7 days, 24 hours post final dose, compared to Actb

SMILES: CN1CCc2cccc3c2[C@@H]1Cc1ccc(O)c(O)c1-3 [(6aS)-6-methyl-5,6,6a,7-tetrahydro-4H-dibenzo[de,g]quinoline-10,11-diol]
- activity on dopamine receptors (in words) (dopamine receptors): weak dopamine antagonist
- dose at which HSF1 regulated genes are activated (Hspa1a and Dnajb1 gene inductions) (HSF1 regulated genes; mice, s.c. once daily 7 days, Example 1): ≥ 0.5 mg/kg
- Hspa1a gene induction (HSF1 regulated genes; [3]): 2.3 fold
- Pgc1a gene induction (HSF1 regulated genes; [3]): 1.7 fold
- Hspa1a gene induction (HSF1 regulated genes; [4]): 2.3 fold
- Pgc1a gene induction (HSF1 regulated genes; [4]): 1.7 fold
- Hspa1a gene induction (HSF1 regulated genes; [5]): 2.0 fold
- Pgc1a gene induction (HSF1 regulated genes; [5]): 1.5 fold
- Dnajb1 gene induction (HSF1 regulated genes; [6]): 1.3 fold
- Hspa1a gene induction (HSF1 regulated genes; [6]): 2.2 fold
- Pgc1a gene induction (HSF1 regulated genes; wildtype mice, repeated dose of 5 mg/kg s.c. once daily 7 days, compared to Gapdh (6 hours post final dose per preceding sentence)): 1.8 fold
- repetitive stimulation, between the dose groups (TDP-43^Q331K mouse model [1]; 3 months): no significant difference
- repetitive stimulation response compared to the vehicle dosing group (TDP-43^Q331K mouse model [1]; 6 months of age, 2.5 mg/kg dose group, stimulation numbers 5 and 7): significant increase
- repetitive stimulation response (percentage of the first stimulation) compared to vehicle (TDP-43^Q331K mouse model [1]; 6 weeks of age, 2.5 mg/kg twice daily, final stimulation, significant difference): larger decrease in response
- Gclm gene induction (NRF2; 5 mg/kg s.c. once daily 7 days, 6 hours post final dose, compared to Gapdh): 1.5 fold
- Gclm gene induction (NRF2; [7]): 1.5 fold
- Nqo1 gene induction (NRF2; [7]): 1.3 fold
- Gclm gene induction (NRF2; 10 mg/kg s.c. once daily 7 days, 6 hours post final dose, compared to Actb): 1.4 fold
- Gclm gene induction (NRF2; [8]): 1.2 fold
- NRF2-responsive gene induction (NRF2; [8]): 1.4 fold
- relative CMAP at 6 months (based on individual CMAP at 3 months) compared to the vehicle group (TDP-43^Q331K mouse model [2]; 2.5 mg/kg dosing group): significant improvement
- relative CMAP at 6 months (based on individual CMAP at 3 months) compared to the vehicle group (TDP-43^Q331K mouse model [2]; 5 mg/kg dosing group): significant improvement
- CMAP compared to the vehicle dosing group (TDP-43^Q331K mouse model [2]; 3 months of age, 5 mg/kg dosing group): significant decrease
- CMAP compared to vehicle dosed animals (TDP-43^Q331K mouse model [2]; 6 months of age, both dosing groups (2.5 mg/kg twice daily, 5 mg/kg once daily)): significant increase
- CMAP, between the different dosing groups (TDP-43^Q331K mouse model [2]; 6 weeks of age): no significant difference

Source: patent publication US20220265635A1, “TREATMENT OF NEUROLOGICAL DISEASE” (Aclipse One Inc., priority 2018, published 2022)
